Reference: ChEMBL document CHEMBL1129074, “Inhibitors of human immunodeficiency virus type 1 derived from gp41 transmembrane protein: structure--activity studies” (J Med Chem, 1996)
pIC50: −log10 of the molar value. Peptide text beside a SMILES is read from it.

Legend:
Details in all cases: Homo sapiens
[1] = system: MT4; experiment: Inhibitory potency of gp41 fragment against HIV-1 induced cytopathic effect in MT-4 cell assay; assay type: functional, cell-based
[2] = system: MT4; experiment: Inhibitory potency of gp41 fragment against HIV-1 induced cytopathic effect in MT-4 cell assay at 16 uM; assay type: functional
[3] = system: MT4; experiment: Inhibitory potency of gp41 fragment against HIV-1 induced cytopathic effect in MT-4 cell assay at 80 uM; assay type: functional

SMILES	pIC50 [1]	inhibition at 16 µM [2] [%]	inhibition at 80 µM [3] [%]
CCCCCCCCCCCCC(N)C(=O)N[C@@H](CCC(N)=O)C(=O)N[C@@H](CC(C)C)C(=O)N[C@H](C(=O)N[C@H](C(=O)N[C@@H](Cc1c[nH]c2ccccc12)C(=O)NCC(=O)N[C@H](C(=O)N[C@@H](CCCCN)C(=O)N[C@@H](CCC(N)=O)C(=O)N[C@@H](CC(C)C)C(=O)N[C@@H](CCC(N)=O)C(=O)N[C@@H](C)C(=O)N[C@@H](CCCN=C(N)N)C(=O)N[C@H](C(=O)O)[C@@H](C)CC)[C@@H](C)CC)C(C)C)[C@@H](C)O (stereo partly drawn) (HELM PEPTIDE1{[CCCCCCCCCCCCC(N)C(=O)[*:2]].Q.L.T.V.W.G.I.K.Q.L.Q.A.R.I}$$$$V2.0)	5.05	32	–
CC[C@H](C)[C@H](NC(=O)[C@H](CCCN=C(N)N)NC(=O)[C@H](C)NC(=O)[C@H](CCC(N)=O)NC(=O)[C@H](CC(C)C)NC(=O)[C@H](CCC(N)=O)NC(=O)CCCCCNC(=O)CCCCCNC(=O)[C@@H](NC(=O)[C@@H](NC(=O)[C@H](CC(C)C)NC(=O)[C@H](CCC(N)=O)NC(=O)[C@H](CC(C)C)NC(=O)[C@H](CC(C)C)NC(=O)[C@H](Cc1c[nH]cn1)NC(=O)[C@H](CCC(N)=O)NC(C)=O)[C@@H](C)O)C(C)C)C(=O)N[C@@H](CC(C)C)C(=O)N[C@@H](C)C(=O)N[C@H](C(=O)N[C@@H](CCC(=O)O)C(=O)O)C(C)C (HELM PEPTIDE1{[ac].Q.H.L.L.Q.L.T.V.[O=C(CCCCCN[*:1])[*:2]].[O=C(CCCCCN[*:1])[*:2]].Q.L.Q.A.R.I.L.A.V.E}$$$$V2.0)	–	–	27
